The structures appear in SMILES notation. Activity calls are given as the source filed them. No cut-off for these calls is given here.

The species named for assay [1] is Danio rerio. As to the kind of experiment: Antialzheimer activity against AlCl3-induced dementia zebrafish model assessed as increase in dyskinesia recovery rate at 10 uM measured for 60 mins under alternating light and dark environment in presence of 150 uM of AlCl3 relative to control. It counts as functional.
The species named for assay [2] is Danio rerio. As to the kind of experiment: Antialzheimer activity against AlCl3-induced dementia zebrafish model assessed as increase in response efficiency at 10 uM measured for 60 mins under alternating light and dark environment in presence of 150 uM of AlCl3 relative to control. It counts as functional.
The species entered for assay [3] is Danio rerio. As to the kind of experiment: Antialzheimer activity against AlCl3-induced dementia zebrafish model assessed as increase in zebrafish movement speed at 10 uM measured for 60 mins under alternating light and dark environment in presence of 150 uM of AlCl3. Format: functional, organism-based.
For assay [4], the species on record is Danio rerio. As to the kind of experiment: Antialzheimer activity against AlCl3-induced dementia zebrafish model assessed as increase in zebrafish movement speed change at 10 uM measured for 60 mins under alternating light and dark environment in presence of 150 uM of AlCl3. It counts as functional, organism-based.

For `O=C(/C=C/[C@H](O)[C@H](O)c1ccc2c(c1)OCO2)N1CCCCC1`, the result in assay [1] and in assay [2] was inactive.

As for `O=C(/C=C/[C@H](O)[C@@H](O)c1ccc2c(c1)OCO2)N1CCCCC1`, the result in assay [1] and in assay [2] was inactive.

Consider `O=C(/C=C/[C@@H](O)[C@@H](O)c1ccc2c(c1)OCO2)N1CCCCC1`, for which the outcome in assay [3] and in assay [4] was Active. The Activity in assay [1] (1 h) amounted to 73.8%; in assay [2] (1 h) it was 85.4%.

For `O=C(/C=C/[C@@H](O)[C@H](O)c1ccc2c(c1)OCO2)N1CCCCC1`, the result in assay [1] and in assay [2] was inactive.

These data come from ChEMBL document CHEMBL4811260, “Isolation, synthesis and absolute configuration of 4,5-dihydroxypiperines improving behavioral disorder in AlCl3-induced dementia” (2021).
